Experimental data taken from publication PMC4854315, “Discovery of a novel allosteric inhibitor-binding site in ERK5: comparison with the canonical kinase hinge ATP-binding site” (Acta Crystallographica. Section D, Structural Biology, 2016).

Legend:
Test in all cases: Z'-LYTE kinase panel
Assay type in all cases: biochemical
PASK = biological target: T1, PASK (Homo sapiens, UniProt Q96RG2)
T1 construct: purchased ThermoFisher (SelectScreen, Z'-LYTE)
In short: (§1)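 Single-point screen, 10 µM compound; % inhibition read by Z′-LYTE (FRET-based) format per standard protocol; 225-kinase panel.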

BRAF = biological target: T2, BRAF (Homo sapiens, UniProt P15056); settings: 10 µM compound; ATP 100
T2 construct: purchased ThermoFisher (SelectScreen, Z'-LYTE)
In short: as §1

SNF1LK2 = biological target: T3, SNF1LK2 (Homo sapiens, UniProt Q9H0K1)
T3 construct: purchased ThermoFisher (SelectScreen, Z'-LYTE)
In short: as §1

CDK1/cyclin B = biological target: T4, CDK1/cyclin B (Homo sapiens, UniProt P06493)
T4 construct: purchased ThermoFisher (SelectScreen, Z'-LYTE)
In short: as §1

CDK2/cyclin A = biological target: T5, CDK2/cyclin A (Homo sapiens, UniProt P24941)
T5 construct: purchased ThermoFisher (SelectScreen, Z'-LYTE)
In short: as §1

PRKCH (PKC eta) = biological target: T6, PRKCH (PKC eta) (Homo sapiens, UniProt P24723)
T6 construct: purchased ThermoFisher (SelectScreen, Z'-LYTE)
In short: as §1

MARK1 (MARK) = biological target: T7, MARK1 (MARK) (Homo sapiens, UniProt Q9P0L2)
T7 construct: purchased ThermoFisher (SelectScreen, Z'-LYTE)
In short: as §1

CSNK2A1 (CK2 alpha 1) = biological target: T8, CSNK2A1 (CK2 alpha 1) (Homo sapiens, UniProt P68400)
T8 construct: purchased ThermoFisher (SelectScreen, Z'-LYTE)
In short: as §1

STK25 (YSK1) = biological target: T9, STK25 (YSK1) (Homo sapiens, UniProt O00506)
T9 construct: purchased ThermoFisher (SelectScreen, Z'-LYTE)
In short: as §1

RPS6KA2 (RSK3) = biological target: T10, RPS6KA2 (RSK3) (Homo sapiens, UniProt Q15349)
T10 construct: purchased ThermoFisher (SelectScreen, Z'-LYTE)
In short: as §1

TAOK2 (TAO1) = biological target: T11, TAOK2 (TAO1) (Homo sapiens, UniProt Q9UL54)
T11 construct: purchased ThermoFisher (SelectScreen, Z'-LYTE)
T11 sequence (Q9UL54 1-1235): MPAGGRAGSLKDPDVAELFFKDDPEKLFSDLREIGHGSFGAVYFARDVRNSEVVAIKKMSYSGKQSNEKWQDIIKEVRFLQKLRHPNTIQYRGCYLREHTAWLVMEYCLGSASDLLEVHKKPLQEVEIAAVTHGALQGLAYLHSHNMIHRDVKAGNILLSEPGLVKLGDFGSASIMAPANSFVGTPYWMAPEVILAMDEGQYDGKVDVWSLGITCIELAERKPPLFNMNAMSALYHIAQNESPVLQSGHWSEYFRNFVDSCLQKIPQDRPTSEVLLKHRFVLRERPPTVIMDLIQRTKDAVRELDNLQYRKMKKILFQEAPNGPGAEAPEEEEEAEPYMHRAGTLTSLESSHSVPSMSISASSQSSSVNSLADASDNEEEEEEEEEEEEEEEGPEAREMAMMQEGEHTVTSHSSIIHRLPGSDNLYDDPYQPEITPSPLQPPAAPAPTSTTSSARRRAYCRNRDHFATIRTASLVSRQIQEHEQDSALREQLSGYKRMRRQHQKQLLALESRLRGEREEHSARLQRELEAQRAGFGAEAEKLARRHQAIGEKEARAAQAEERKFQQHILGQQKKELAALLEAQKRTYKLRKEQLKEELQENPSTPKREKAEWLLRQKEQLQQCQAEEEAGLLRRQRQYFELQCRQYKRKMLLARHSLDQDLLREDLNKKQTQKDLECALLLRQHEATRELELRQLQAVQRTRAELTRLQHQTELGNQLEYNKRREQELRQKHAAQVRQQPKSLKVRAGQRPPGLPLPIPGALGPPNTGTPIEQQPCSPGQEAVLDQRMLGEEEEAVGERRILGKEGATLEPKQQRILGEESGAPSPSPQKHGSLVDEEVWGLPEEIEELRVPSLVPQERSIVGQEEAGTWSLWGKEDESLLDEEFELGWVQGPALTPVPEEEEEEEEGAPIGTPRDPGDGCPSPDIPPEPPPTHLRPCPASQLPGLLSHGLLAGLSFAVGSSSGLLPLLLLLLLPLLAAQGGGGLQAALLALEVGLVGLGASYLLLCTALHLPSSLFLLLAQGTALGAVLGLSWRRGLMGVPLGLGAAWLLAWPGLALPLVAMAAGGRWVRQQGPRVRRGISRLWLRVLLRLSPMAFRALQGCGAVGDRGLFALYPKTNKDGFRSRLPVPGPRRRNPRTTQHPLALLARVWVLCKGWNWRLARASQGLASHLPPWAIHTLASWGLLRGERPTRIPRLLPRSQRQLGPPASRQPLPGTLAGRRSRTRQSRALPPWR
In short: as §1

JAK2 JH1 JH2 = biological target: T12, JAK2 JH1 JH2 (Homo sapiens, UniProt O60674)
T12 construct: JAK2 JH1 JH2; purchased ThermoFisher (SelectScreen, Z'-LYTE)
In short: as §1

DCAMKL2 (DCK2) = biological target: T13, DCAMKL2 (DCK2) (Homo sapiens, UniProt Q8N568)
T13 construct: purchased ThermoFisher (SelectScreen, Z'-LYTE)
T13 sequence (Q8N568 1-766): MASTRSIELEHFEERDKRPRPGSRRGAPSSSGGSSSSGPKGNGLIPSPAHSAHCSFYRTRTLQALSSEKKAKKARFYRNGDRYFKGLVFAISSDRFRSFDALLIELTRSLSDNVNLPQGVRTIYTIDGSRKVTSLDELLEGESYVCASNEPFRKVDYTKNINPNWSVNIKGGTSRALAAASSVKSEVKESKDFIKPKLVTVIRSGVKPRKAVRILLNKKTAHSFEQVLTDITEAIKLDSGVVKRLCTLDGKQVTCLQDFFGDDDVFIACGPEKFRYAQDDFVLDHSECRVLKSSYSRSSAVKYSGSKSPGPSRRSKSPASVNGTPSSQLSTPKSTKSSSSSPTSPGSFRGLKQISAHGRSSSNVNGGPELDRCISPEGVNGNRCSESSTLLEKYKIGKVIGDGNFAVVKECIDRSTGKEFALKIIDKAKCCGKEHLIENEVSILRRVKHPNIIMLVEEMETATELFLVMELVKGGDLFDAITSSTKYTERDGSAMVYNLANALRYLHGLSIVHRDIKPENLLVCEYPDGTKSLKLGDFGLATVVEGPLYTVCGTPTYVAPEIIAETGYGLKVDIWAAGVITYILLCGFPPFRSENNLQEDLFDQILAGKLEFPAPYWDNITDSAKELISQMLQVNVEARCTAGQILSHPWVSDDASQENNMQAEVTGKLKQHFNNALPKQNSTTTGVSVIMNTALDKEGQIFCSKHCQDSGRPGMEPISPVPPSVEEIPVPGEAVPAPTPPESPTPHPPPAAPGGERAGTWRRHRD
In short: as §1

DYRK1A = biological target: T14, DYRK1A (Homo sapiens, UniProt Q13627)
T14 construct: purchased ThermoFisher (SelectScreen, Z'-LYTE)
In short: as §1

ALK = biological target: T15, ALK (Homo sapiens, UniProt Q9UM73)
T15 construct: purchased ThermoFisher (SelectScreen, Z'-LYTE)
In short: as §1

T7 sequence (Q9P0L2 whole entry): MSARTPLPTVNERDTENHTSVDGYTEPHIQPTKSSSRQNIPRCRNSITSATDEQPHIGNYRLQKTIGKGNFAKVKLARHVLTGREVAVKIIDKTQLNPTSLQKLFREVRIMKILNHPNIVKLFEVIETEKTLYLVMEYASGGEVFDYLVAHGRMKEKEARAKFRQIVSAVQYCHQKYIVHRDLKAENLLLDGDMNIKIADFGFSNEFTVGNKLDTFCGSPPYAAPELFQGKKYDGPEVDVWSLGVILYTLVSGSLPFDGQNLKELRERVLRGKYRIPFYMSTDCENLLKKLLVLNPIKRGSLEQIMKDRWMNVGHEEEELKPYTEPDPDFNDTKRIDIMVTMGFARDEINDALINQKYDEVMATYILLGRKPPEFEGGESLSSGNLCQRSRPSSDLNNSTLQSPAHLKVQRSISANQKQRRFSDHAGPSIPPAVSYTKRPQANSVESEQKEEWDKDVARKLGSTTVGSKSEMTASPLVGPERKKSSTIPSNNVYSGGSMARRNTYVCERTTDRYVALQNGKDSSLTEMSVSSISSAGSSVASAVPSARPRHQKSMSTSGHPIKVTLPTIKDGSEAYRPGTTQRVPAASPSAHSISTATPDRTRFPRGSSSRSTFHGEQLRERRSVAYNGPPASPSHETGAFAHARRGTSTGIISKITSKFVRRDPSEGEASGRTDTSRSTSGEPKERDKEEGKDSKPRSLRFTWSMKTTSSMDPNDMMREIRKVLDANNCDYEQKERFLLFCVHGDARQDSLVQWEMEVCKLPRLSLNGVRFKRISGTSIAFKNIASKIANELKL
T10 sequence (Q15349 whole entry): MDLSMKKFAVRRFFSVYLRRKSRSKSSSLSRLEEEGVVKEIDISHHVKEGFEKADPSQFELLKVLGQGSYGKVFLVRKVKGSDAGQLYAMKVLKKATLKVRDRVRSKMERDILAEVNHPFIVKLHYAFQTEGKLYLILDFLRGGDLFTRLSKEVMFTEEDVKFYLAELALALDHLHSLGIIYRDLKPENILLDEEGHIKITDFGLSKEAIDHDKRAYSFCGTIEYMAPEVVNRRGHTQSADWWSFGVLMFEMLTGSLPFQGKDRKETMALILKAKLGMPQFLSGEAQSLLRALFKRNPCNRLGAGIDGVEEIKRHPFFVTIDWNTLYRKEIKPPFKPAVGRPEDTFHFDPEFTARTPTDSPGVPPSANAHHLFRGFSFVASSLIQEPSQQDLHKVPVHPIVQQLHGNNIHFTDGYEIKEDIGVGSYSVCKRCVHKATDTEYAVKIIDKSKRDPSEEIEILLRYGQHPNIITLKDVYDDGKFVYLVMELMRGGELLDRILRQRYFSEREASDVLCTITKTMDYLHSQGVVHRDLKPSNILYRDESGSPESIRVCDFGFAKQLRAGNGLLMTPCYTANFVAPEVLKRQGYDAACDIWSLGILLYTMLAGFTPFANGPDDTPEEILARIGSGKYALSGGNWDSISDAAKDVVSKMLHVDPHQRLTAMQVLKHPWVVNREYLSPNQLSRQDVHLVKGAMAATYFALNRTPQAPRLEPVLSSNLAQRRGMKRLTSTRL
T4 sequence (P06493 whole entry): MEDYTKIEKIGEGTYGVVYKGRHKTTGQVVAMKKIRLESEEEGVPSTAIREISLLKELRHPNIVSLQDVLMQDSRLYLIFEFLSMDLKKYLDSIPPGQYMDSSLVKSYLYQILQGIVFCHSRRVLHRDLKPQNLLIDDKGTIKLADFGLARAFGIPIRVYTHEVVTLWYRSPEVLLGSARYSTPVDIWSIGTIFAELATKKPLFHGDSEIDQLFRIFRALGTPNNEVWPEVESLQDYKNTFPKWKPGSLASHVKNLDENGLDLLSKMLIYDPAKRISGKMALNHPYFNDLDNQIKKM
T4 sequence (P14635 whole entry partner): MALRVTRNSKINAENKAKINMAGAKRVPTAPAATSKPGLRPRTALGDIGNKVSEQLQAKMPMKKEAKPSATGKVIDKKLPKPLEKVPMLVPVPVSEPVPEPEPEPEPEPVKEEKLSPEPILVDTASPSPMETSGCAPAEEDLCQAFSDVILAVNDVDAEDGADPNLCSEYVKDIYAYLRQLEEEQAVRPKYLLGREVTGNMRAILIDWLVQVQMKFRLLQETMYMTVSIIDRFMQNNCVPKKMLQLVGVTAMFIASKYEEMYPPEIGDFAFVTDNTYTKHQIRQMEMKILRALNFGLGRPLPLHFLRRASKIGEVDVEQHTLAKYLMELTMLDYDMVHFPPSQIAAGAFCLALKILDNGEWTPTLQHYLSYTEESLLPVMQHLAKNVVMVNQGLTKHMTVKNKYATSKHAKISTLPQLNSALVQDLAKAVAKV
T12 sequence (O60674 532-1132 limits assumed): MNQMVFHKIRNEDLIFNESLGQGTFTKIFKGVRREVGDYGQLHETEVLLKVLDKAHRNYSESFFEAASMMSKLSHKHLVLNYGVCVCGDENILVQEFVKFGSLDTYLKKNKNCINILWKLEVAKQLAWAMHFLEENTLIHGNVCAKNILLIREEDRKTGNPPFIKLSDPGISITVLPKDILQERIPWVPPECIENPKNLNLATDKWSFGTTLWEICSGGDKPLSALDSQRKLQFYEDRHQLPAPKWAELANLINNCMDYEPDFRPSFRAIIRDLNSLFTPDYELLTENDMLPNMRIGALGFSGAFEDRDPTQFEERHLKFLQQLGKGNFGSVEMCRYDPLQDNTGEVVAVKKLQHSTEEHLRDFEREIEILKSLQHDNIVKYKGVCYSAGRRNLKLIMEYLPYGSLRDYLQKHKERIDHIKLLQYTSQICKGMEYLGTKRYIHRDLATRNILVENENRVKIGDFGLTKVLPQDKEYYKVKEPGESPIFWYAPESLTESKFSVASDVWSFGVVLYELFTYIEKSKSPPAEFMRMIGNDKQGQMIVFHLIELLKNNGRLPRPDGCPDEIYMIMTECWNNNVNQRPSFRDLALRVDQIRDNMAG
T1 sequence (Q96RG2 whole entry): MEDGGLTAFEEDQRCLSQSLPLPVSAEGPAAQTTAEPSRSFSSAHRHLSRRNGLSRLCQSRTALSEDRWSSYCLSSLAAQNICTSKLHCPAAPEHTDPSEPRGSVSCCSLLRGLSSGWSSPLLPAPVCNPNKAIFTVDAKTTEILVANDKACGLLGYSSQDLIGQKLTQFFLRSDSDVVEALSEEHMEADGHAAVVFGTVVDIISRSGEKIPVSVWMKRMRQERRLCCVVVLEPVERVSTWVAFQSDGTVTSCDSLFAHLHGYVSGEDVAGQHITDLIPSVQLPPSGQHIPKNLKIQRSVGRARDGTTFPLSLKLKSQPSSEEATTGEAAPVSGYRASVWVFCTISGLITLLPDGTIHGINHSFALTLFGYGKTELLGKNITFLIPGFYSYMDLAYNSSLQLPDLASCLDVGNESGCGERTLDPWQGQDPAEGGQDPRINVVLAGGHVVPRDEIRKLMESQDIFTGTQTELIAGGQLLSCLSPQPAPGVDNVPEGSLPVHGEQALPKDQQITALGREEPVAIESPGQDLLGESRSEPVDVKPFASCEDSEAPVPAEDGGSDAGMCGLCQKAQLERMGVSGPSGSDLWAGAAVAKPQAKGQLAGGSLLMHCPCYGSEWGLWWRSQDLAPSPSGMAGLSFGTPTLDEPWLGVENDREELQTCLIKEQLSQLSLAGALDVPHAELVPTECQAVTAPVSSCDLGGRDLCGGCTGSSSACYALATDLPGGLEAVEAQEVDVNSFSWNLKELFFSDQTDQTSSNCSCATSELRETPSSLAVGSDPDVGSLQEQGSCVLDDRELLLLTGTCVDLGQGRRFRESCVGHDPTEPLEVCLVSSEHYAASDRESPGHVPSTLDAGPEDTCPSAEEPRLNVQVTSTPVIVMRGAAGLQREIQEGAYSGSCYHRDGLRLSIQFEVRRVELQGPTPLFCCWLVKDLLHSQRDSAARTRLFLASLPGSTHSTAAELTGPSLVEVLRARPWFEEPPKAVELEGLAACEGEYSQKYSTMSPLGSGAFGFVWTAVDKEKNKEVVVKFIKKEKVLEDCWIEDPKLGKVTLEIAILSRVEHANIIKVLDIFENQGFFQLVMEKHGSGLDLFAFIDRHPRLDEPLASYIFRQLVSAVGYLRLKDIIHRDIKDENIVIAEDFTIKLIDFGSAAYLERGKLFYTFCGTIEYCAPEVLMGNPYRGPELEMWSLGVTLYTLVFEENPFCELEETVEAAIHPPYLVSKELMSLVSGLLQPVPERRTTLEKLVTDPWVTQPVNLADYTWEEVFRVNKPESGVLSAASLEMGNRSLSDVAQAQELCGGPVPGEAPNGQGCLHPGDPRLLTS
T2 sequence (P15056 whole entry): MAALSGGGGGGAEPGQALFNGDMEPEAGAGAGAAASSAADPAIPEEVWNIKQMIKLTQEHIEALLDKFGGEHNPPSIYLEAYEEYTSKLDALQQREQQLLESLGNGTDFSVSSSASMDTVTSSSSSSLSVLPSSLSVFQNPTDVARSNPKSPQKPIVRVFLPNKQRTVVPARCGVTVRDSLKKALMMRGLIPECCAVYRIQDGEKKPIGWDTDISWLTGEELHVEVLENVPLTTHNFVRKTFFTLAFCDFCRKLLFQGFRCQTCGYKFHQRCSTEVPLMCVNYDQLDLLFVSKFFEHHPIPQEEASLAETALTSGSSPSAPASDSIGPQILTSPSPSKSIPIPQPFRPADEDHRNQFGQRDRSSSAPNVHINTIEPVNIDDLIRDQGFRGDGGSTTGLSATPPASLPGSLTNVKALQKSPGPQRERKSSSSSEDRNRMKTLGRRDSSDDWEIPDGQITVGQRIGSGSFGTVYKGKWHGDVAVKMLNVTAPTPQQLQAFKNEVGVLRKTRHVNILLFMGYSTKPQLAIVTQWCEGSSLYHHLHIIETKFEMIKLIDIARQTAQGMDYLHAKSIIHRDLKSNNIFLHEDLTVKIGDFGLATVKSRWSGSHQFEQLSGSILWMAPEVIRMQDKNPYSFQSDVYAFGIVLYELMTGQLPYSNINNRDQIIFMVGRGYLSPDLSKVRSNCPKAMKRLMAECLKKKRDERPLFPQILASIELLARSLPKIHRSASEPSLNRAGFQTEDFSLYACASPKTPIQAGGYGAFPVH

Molecule	inhibition at 10 µM (PASK)	inhibition at 10 µM (BRAF)	inhibition at 10 µM (SNF1LK2)	inhibition at 10 µM (CDK1/cyclin B)	inhibition at 10 µM (CDK2/cyclin A)	inhibition at 10 µM (PRKCH (PKC eta))	inhibition at 10 µM (MARK1 (MARK))	inhibition at 10 µM (CSNK2A1 (CK2 alpha 1))	inhibition at 10 µM (STK25 (YSK1))	inhibition at 10 µM (RPS6KA2 (RSK3))	inhibition at 10 µM (TAOK2 (TAO1))	inhibition at 10 µM (JAK2 JH1 JH2)	inhibition at 10 µM (DCAMKL2 (DCK2))	inhibition at 10 µM (DYRK1A)	inhibition at 10 µM (ALK)	further results
XMD8-92 [Compound 2, reference compound]																PASK % Inhibition (PASK; 10 µM compound, ATP Km app): 49%; BRAF % Inhibition (BRAF): 15%; SNF1LK2 % Inhibition (SNF1LK2; 10 µM compound, ATP Km app): 62%; CDK1/cyclin B % Inhibition (CDK1/cyclin B; 10 µM compound, ATP Km app): 8.43%; CDK2/cyclin A % Inhibition (CDK2/cyclin A; 10 µM compound, ATP Km app): 20%; PRKCH (PKC eta) % Inhibition (PRKCH (PKC eta); 10 µM compound, ATP Km app): 41%; MARK1 (MARK) % Inhibition (MARK1 (MARK); 10 µM compound, ATP Km app): 11%; CSNK2A1 (CK2 alpha 1) % Inhibition (CSNK2A1 (CK2 alpha 1); 10 µM compound, ATP Km app): 8%; STK25 (YSK1) % Inhibition (STK25 (YSK1); 10 µM compound, ATP Km app): 9.49%; RPS6KA2 (RSK3) % Inhibition (RPS6KA2 (RSK3); 10 µM compound, ATP Km app): 23%; TAOK2 (TAO1) % Inhibition (TAOK2 (TAO1); 10 µM compound, ATP Km app): 39%; JAK2 JH1 JH2 % Inhibition (JAK2 JH1 JH2; 10 µM compound, ATP Km app): 52%; DCAMKL2 (DCK2) % Inhibition (DCAMKL2 (DCK2); 10 µM compound, ATP Km app): 61%; DYRK1A % Inhibition (DYRK1A; 10 µM compound, ATP Km app): 2%; ALK % Inhibition (ALK; 10 µM compound, ATP Km app): 16%
Cc1ncc(-c2nc(Nc3ccc(C(=O)NCCN4CCCCC4)cc3)ncc2F)n1C(C)C [Compound 3]	30%	90%	88%	96%	101%	54%	87%	40%	72%	90%	97%	76%	62%	93%	78%	
Cc1cc(Nc2nc(N)nn2C(=O)NC(C)C)ccc1Cl [Compound 5]	1.44%	12%	74%	56%	56%	-18%	17%	8%	12%	70%	21%	25%	-1.9%	1.48%	20%	
